According to US20250213592A1, “PHARMACEUTICAL COMPOSITION COMPRISING CURCUMIN AND GINSENOSIDE, AND FORMULATION THEREOF” (CORESTEMCHEMON INC., priority 2022, published 2025):

Assays:
SNU-C1 [1] = assay: Cell mobility (transwell) of irradiated SNU-C1 cells; format: cell-based, human; conditions: SNU-C1, 10 Gy, 10 μM, 24 hours
Description: (§1) Cell mobility was measured using a 24 mm transwell with […]. After stabilizing the cells irradiated with 10 Gy of radiation for 24 hours, the cells were suspended in a medium and seeded in the upper chamber of the transwell, and the lower chamber was filled with a medium containing 10% fetal bovine serum (FBS) and 10 μM butyric acid (BA), ginsenosides Rh1, Rh2, Ro, Rb1, curcumin (CU), and sucralfate (SCF) either alone or in combination, and culturing was performed. After 24 hours of culture, the downside of the transwell was stained with crystal violet dye, and the stained cells were counted by observing them with an inverted microscope.

[2] = test system: human dermal fibroblasts (HDF); assay: Cell mobility (transwell) of irradiated human dermal fibroblasts; format: cell-based; conditions: 10 μM, alone or in combination
Description: as §1

HUVEC = assay: Vascular endothelial cell tube formation after irradiation; format: cell-based, human; conditions: irradiated HUVEC, 10 μM, alone or in combination
Description: After irradiating human umbilical endothelial cells (HUVEC) with 10 Gy of radiation, the cells were seeded on a matrigel-coated u-slide, and were treated with 10 μM of curcumin (CU), butyric acid (BA), sucralfate (SCF), ginsenosides Rh1, Rh2, Rb1, or Ro either alone or in combination.
It was investigated whether a treatment with curcumin (CU), butyric acid (BA), sucralfate (SCF), and ginsenoside Rh1 (Rh1) alone or in combination restored the function of HUVEC cells damaged by radiation.

HCT116 [3] = assay: Cell viability (Cell Counting Kit-8) of irradiated HCT116 cells; format: cell-based, human; conditions: HCT116, 10 Gy, 48 hours
Description: (§2) Human colon cancer cell lines (HCT116 and SNU-C1), a human dermal fibroblast cell line and a human keratinocyte cell line (HaCaT) were cultured in Dulbecco's modified eagles medium-high glucose (DMEM) containing 10% fetal bovine serum (FBS), 100 units/mL penicillin, and 100 μg/mL streptomycin. A Human umbilical vascular endothelial cell line (HUVEC) was cultured in a vascular cell basal medium (ATCC) containing Endothelial cell growth kit-VEGF (ATCC). All of the above cells were cultured in a 5% CO2 cell incubator at 37° C.
(§3) Cell viability test was performed using Cell Counting Kit-8. HCT116 and SNU-C1 cell lines, which are colon cancer cells, were seeded on 60 mm culture dishes and cultured, and then irradiated with 10 Gy of radiation. The cells were harvested, seeded on 96-well culture plates, and incubated, and then the cells were treated with butyric acid (BA), ginsenosides Rh1, Rh2, Ro, Rb1, and curcumin (CU) at concentrations of 5, 10, or 50 μM, respectively. After 48 hours, cell viability was analyzed using Cell Counting Kit-8 and a microplate reader.
(§4) In order to investigate the effects of curcumin (CU), butyric acid (BA), and ginsenoside on the decreased cell viability due to irradiation, HCT116 and SNU-C1 cells were treated with curcumin, butyric acid, ginsenoside Rh1, Rh2, Ro, or Rb1 at concentrations of 5, 10, and 50 μM, respectively, and the viability of each cell was measured (FIGS. 1 and 2).

SNU-C1 [4] = assay: Cell viability (Cell Counting Kit-8) of irradiated SNU-C1 cells; format: cell-based, human; conditions: SNU-C1, 10 Gy, 48 hours
Description: as §2, §3, §4

HCT116 [5] = assay: Cell mobility (transwell) of irradiated HCT116 cells; format: cell-based, human; conditions: HCT116, 10 Gy, 10 μM, 24 hours
Description: as §1
The experiment was conducted using the same manner as Experimental Example 3, except that the effective agents for treatment were a combination of curcumin, butyric acid, sucralfate, and ginsenoside.

skin of irradiated mice = conditions: cited from earlier work
[6] = test system: intestinal epithelial cells; conditions: cited from earlier work
[7] = test system: radiation proctitis model mouse; assay: Radiation proctitis model mouse: pathological morphology of colon and rectal tissue (H&E); format: in vivo; conditions: 27 Gy, intrarectal, 14 days, vs irradiated group (IR)
Description: by administration of combination drug to proctitis model mouse C57BL/6 mice (5 weeks old, female) were irradiated with 27 Gy of radiation, and then divided into test groups as shown in Table 4 and FIG. 13. From the next day, samples prepared at concentrations as shown in Table 5 and FIG. 14 (formulated using the method of Example 1) were administered intrarectally at 2-3 day intervals for a total of 6 times (FIG. 16).
The efficacy of the treated samples was confirmed 14 days after the final radiation. In this case, except for the non-irradiated group (n=5), all test treatment groups were conducted with 7 mice per group. A flexible plastic tube was inserted into the rectum for administration, and a formulation containing approximately 50 μl of the compound was administered per mouse at a time.
In addition, pathological morphological analysis of the intestinal tissue was performed by observing the morphology of each treatment group through a microscope after performing H&E staining.
Specifically, the extracted organs were fixed in 10% formalin and paraffin blocks were created (STP120 Spin tissue Processor, Myr). Thereafter, sections were mounted on slides using a microtome (Finesse ME Microtome, Thermo Shandon), dried, deparaffinized and hydrated to create tissue slides. […]

[8] = 5 μM or 10 μM, vs irradiated group

CC(C)=CCC[C@](C)(O[C@@H]1O[C@H](CO[C@@H]2O[C@H](CO)[C@@H](O)[C@H](O)[C@H]2O)[C@@H](O)[C@H](O)[C@H]1O)[C@H]1CC[C@]2(C)[C@@H]1[C@H](O)C[C@@H]1[C@@]3(C)CC[C@H](O[C@@H]4O[C@H](CO)[C@@H](O)[C@H](O)[C@H]4O[C@@H]4O[C@H](CO)[C@@H](O)[C@H](O)[C@H]4O)C(C)(C)[C@@H]3CC[C@]12C [Rb1, ginsenoside Rb1]
cell mobility rate compared to the irradiated group (SNU-C1 [1]): significantly increased

CC(C)=CCC[C@](C)(O)[C@H]1CC[C@]2(C)C1[C@H](O)C[C@@H]1[C@@]3(C)CC[C@H](O)C(C)(C)[C@@H]3[C@@H](O[C@@H]3O[C@H](CO)[C@@H](O)[C@H](O)[C@H]3O)C[C@]12C (stereo partly shown) [Rh1, ginsenoside Rh1]
Mobility rate (%), average value [2]: 99% | Tube length (%), average value (HUVEC): 15%

CC(C)=CCC[C@](C)(O)[C@H]1CC[C@]2(C)[C@@H]1[C@H](O)C[C@@H]1[C@@]3(C)CC[C@H](O[C@@H]4O[C@H](CO)[C@@H](O)[C@H](O)[C@H]4O)C(C)(C)[C@@H]3CC[C@]12C [Rh2, ginsenoside Rh2]
cell viability compared to the irradiated group (HCT116 [3]; 50 μM): lower cell viabilities than the irradiated group | cell viability compared to the irradiated group (SNU-C1 [4]; 50 μM): lower cell viabilities than the irradiated group | cell mobility rate compared to the irradiated group (HCT116 [5]): highest cell mobility recovery rate

CC1(C)CC[C@]2(C(=O)O[C@@H]3O[C@H](CO)[C@@H](O)[C@H](O)[C@H]3O)CC[C@]3(C)C(=CC[C@@H]4[C@@]5(C)CC[C@H](O[C@@H]6O[C@H](C(=O)O)[C@@H](O)[C@H](O)[C@H]6O[C@@H]6O[C@H](CO)[C@@H](O)[C@H](O)[C@H]6O)C(C)(C)[C@@H]5CC[C@]43C)[C@@H]2C1 [Ro, ginsenoside Ro]
cell viability compared to the irradiated group (HCT116 [3]; 5 μM): lower cell viabilities than the irradiated group | cell viability compared to the irradiated group (SNU-C1 [4]; 5 μM): lower cell viabilities than the irradiated group

CCCC(=O)O [butyric acid, Butyric acid]
cell mobility rate compared to the irradiated group (HCT116 [5]): double increase | Mobility rate (%), average value [2]: 76% | Tube length (%), average value (HUVEC): 14%

COc1cc(/C=C/C(=O)CC(=O)/C=C/c2ccc(O)c(OC)c2)ccc1O [curcumin]
cell viability decreased by irradiation (HCT116 [3]; [8]): significantly increased | cell viability compared to the irradiated group (HCT116 [3]; 50 μM): lower cell viabilities than the irradiated group | cell viability decreased by irradiation (SNU-C1 [4]; [8]): significantly increased | cell viability compared to the irradiated group (SNU-C1 [4]; 50 μM): lower cell viabilities than the irradiated group | cell mobility rate compared to the irradiated group (HCT116 [5]): double increase | cell mobility rate compared to the irradiated group (SNU-C1 [1]): significantly increased | Mobility rate (%), average value [2]: 130% | Tube length (%), average value (HUVEC): 15% | skin damage (skin of irradiated mice; irradiated mice): restoring skin damage | expression of inflammatory cytokines and fibrogenic cytokines (skin of irradiated mice; skin of irradiated mice): reducing the expression

CC(C)=CCC[C@](C)(O[C@@H]1O[C@H](CO)[C@@H](O)[C@H](O)[C@H]1O)[C@H]1CC[C@]2(C)[C@@H]1[C@H](O)C[C@@H]1[C@@]3(C)CC[C@H](O[C@@H]4O[C@H](CO)[C@@H](O)[C@H](O)[C@H]4O[C@@H]4O[C@H](CO)[C@@H](O)[C@H](O)[C@H]4O)C(C)(C)[C@@H]3CC[C@]12C [ginsenoside Rd]
apoptosis induced by irradiation [6]: inhibit apoptosis

Sucralfate [reference compound]
Mobility rate (%), average value [2]: 91% | Tube length (%), average value (HUVEC): 14% | epithelium loss and crypt damage induced by irradiation [7]: recovered in all sample treatment groups except the sucralfate treatment group
